Measurements: US10647747B2, “Cyclosporin derivatives and uses thereof” (S&T Global Inc., priority 2010, dated 2020)
pEC50: −log10 of the molar value. Like-named read-outs stand apart in the source and are kept apart here. *1 amine or outer side, *2 acyl side, *3 side chain or, on linkers, in order; H or OH if unused. Where a SMILES comes first, the peptide text is derived from it. [ ]: non-standard residue; d: D form. The star is where a group is joined. MeBmt = C/C=C/C[C@@H](C)[C@@H](O)[C@H](NC)C(=O)O; X14 = CCOCOC(C)(C)C[C@@H](C(=O)[*:2])N(C)[*:1]; X6 = CCN(CC)CCS[C@H](C(=O)[*:2])N(C)[*:1]; X3 = CC=CCC(C)C(O)C(C(=O)[*:2])N(C)[*:1]; X5 = CSCOC(C)(C)CC(C(=O)[*:2])N(C)[*:1]; X4 = CCN(CC)CCSC(C(=O)[*:2])N(C)[*:1]; NMeL = CN[CH](CC(C)C)C(=O)O; NMeV = CN[CH](C(=O)O)C(C)C; dNMeC = CN[C@H](CS)C(=O)O; Et2NCH2CH2 = CCN(CC)CC*; Abu = CC[CH](N)C(=O)O

Tested on: HCV replicon in cell line ET (luc-ubi-neo/ET), Huh7 human hepatoma
Assay: HCV subgenomic replicon assay, luciferase end point
Format: cell-based
[1] = Hepatitis C virus, Huh-7, HCV subgenomic replicon, cell line ET (luc-ubi-neo/ET) Huh7, luciferase end point, read-out: Antiviral activity EC50
[2] = Table 12, HCV replicon luciferase, read-out: Antiviral activity EC50
[3] = HCV subgenomic replicon, cell line ET (luc-ubi-neo/ET) Huh7, luciferase end point, read-out: Antiviral activity EC50
[4] = Table 13, HCV replicon luciferase, read-out: Antiviral activity EC50
[5] = Table 14, HCV replicon luciferase, read-out: Antiviral activity EC50
[6] = Hepatitis C virus, Huh-7, Table 14, HCV replicon luciferase, read-out: Antiviral activity EC50

## C/C=C/C[C@@H](C)[C@@H](O)[C@H]1C(=O)N[C@@H](CC)C(=O)N(C)[C@H](CSCCNCC(C)(C)C)C(=O)N(C)[C@@H](CC(C)(C)O)C(=O)N[C@@H](C(C)C)C(=O)N(C)[C@@H](CC(C)C)C(=O)N[C@@H](C)C(=O)N[C@H](C)C(=O)N(C)[C@@H](CC(C)C)C(=O)N(C)[C@@H](CC(C)C)C(=O)N(C)[C@@H](C(C)C)C(=O)N1C
[1]
  pEC50: 7.22
Hepatitis C virus, Huh-7, Table 16, HCV replicon luciferase, read-out: Antiviral activity EC50
  pEC50: 7.30

## CC=CCC(C)C(O)C1C(=O)NC(CC)C(=O)N(C)C(SCCN(C)C)C(=O)N(C)C(C(C)C)C(=O)NC(C(C)C)C(=O)N(C)C(CC(C)C)C(=O)NC(C)C(=O)NC(C)C(=O)N(C)C(CC(C)C)C(=O)N(C)C(CC(C)C)C(=O)N(C)C(C(C)C)C(=O)N1C [(S)-2-(N,N-Dimethylamino)ethylthio-Sar]-3-[N-MeVal]-4-cyclosporin]
[2]
  pEC50: 6.89

## C/C=C/C[C@@H](C)[C@@H](O)[C@H]1C(=O)N[C@@H](CC)C(=O)N(C)[C@H](COCCN(C)C)C(=O)N(C)[C@@H](CC(C)C)C(=O)N[C@@H](C(C)C)C(=O)N(C)[C@@H](CC(C)C)C(=O)N[C@@H](C)C(=O)N[C@H](C)C(=O)N(C)[C@@H](CC(C)C)C(=O)N(C)[C@@H](CC(C)C)C(=O)N(C)[C@@H](C(C)C)C(=O)N1C [[(R)-(2-(N,N-Dimethylamino)ethoxy)methyl-Sar]-3-cyclosporin]
[1]
  pEC50: 6.82

## CC=CCC(C)C(O)C1C(=O)NC(CC)C(=O)N(C)C(SCCNCC(C)(C)C)C(=O)N(C)C(CC(C)C)C(=O)NC(C(C)C)C(=O)N(C)C(CC(C)C)C(=O)NC(C)C(=O)NC(C)C(=O)N(C)C(CC(C)C)C(=O)N(C)C(CC(C)C)C(=O)N(C)C(C(C)C)C(=O)N1C [(R)-2-(N-neo-Pentylamino)ethylthio-Sar]-3-cyclosporin]
[2]
  pEC50: 5.51

## C/C=C/C[C@@H](C)[C@@H](O)[C@H]1C(=O)N[C@@H](CC)C(=O)N(C)[C@H](SCCN(CC)CC)C(=O)N(C)[C@@H](C(C)C)C(=O)N[C@@H](C(C)C)C(=O)N(C)[C@@H](CC(C)C)C(=O)N[C@@H](C)C(=O)N[C@H](C)C(=O)N(C)[C@@H](CC(C)C)C(=O)N(C)[C@@H](CC(C)C)C(=O)N(C)[C@@H](C(C)C)C(=O)N1C [(R)-2-(N,N-Diethylamino)ethylthio-Sar]-3-[N-MeVal]-4-cyclosporin] (cyclo(A[dA][NMeL][NMeL][NMeV][MeBmt][Abu][X6][NMeV]V[NMeL]))
[2]
  pEC50: 5.44

## CC=CCC(C)C(O)C1C(=O)NC(CC)C(=O)N(C)C(CSCCN2CCCC2)C(=O)N(C)C(CC(C)(C)O)C(=O)NC(C(C)C)C(=O)N(C)C(CC(C)C)C(=O)NC(C)C(=O)NC(C)C(=O)N(C)C(CC(C)C)C(=O)N(C)C(CC(C)C)C(=O)N(C)C(C(C)C)C(=O)N1C (stereo not shown)
[3]
  pEC50: 6.96

## CCCCC(C)C(O)C1C(=O)NC(CC)C(=O)N(C)CC(=O)N(C)C(CC(C)(C)OC)C(=O)NC(C(C)C)C(=O)N(C)C(CC(C)C)C(=O)NC(C)C(=O)NC(C)C(=O)N(C)C(CC(C)C)C(=O)N(C)C(CC(C)C)C(=O)N(C)C(C(C)C)C(=O)N1C (stereo not shown) [[(γ-Methoxy)-N-MeLeu]-4-dihydrocyclosporin]
[4]
  pEC50: 6.46

## CC=CCC(C)C(O)C1C(=O)NC(CC)C(=O)N(C)C(CSCCN(CC)C(C)C)C(=O)N(C)C(CC(C)(C)O)C(=O)NC(C(C)C)C(=O)N(C)C(CC(C)C)C(=O)NC(C)C(=O)NC(C)C(=O)N(C)C(CC(C)C)C(=O)N(C)C(CC(C)C)C(=O)N(C)C(C(C)C)C(=O)N1C (stereo not shown)
[3]
  pEC50: 7.15

## (S)-2-(N,N-Diethylamino)ethylthio-Sar]-3-[N-MeIle]-4-cyclosporin
[2]
  pEC50: 7.40

## CC=CCC(C)C(O)C1C(=O)NC(CC)C(=O)N(C)C(SCCN(CC)CC)C(=O)N(C)C(CC(C)C)C(=O)NC(C(C)C)C(=O)N(C)C(CC(C)C)C(=O)NC(C)C(=O)NC(C)C(=O)N(C)C(CC(C)C)C(=O)N(C)C(CC(C)C)C(=O)N(C)C(C(C)C)C(=O)N1C [(S)-2-(N-Diethylamino)ethylthio-Sar]-3-cyclosporin]
[2]
  pEC50: 6.80

## CC=CCC(C)C(O)C1C(=O)NC(CC)C(=O)N(C)C(CSCCCN2CCOCC2)C(=O)N(C)C(CC(C)(C)OC)C(=O)NC(C(C)C)C(=O)N(C)C(CC(C)C)C(=O)NC(C)C(=O)NC(C)C(=O)N(C)C(CC(C)C)C(=O)N(C)C(CC(C)C)C(=O)N(C)C(C(C)C)C(=O)N1C (stereo not shown)
[3]
  pEC50: 7.00

## C/C=C/C[C@@H](C)[C@@H](O)[C@H]1C(=O)N[C@@H](CC)C(=O)N(C)[C@H](CSCCCCO)C(=O)N(C)[C@@H](CC(C)(C)O)C(=O)N[C@@H](C(C)C)C(=O)N(C)[C@@H](CC(C)C)C(=O)N[C@@H](C)C(=O)N[C@H](C)C(=O)N(C)[C@@H](CC(C)C)C(=O)N(C)[C@@H](CC(C)C)C(=O)N(C)[C@@H](C(C)C)C(=O)N1C [[(S)-(4-Hydroxylbutylthio)methyl-Sar]-3-[(γ-hydroxy)-N-MeLeu]-4-cyclosporin]
Table 16, HCV replicon luciferase, read-out: Antiviral activity EC50
  pEC50: 7.70

## CC=CCC(C)C(O)C1C(=O)NC(CC)C(=O)N(C)C(SCCN(CC)CC)C(=O)N(C)C(CC(C)(C)OCSC)C(=O)NC(C(C)C)C(=O)N(C)C(CC(C)C)C(=O)NC(C)C(=O)NC(C)C(=O)N(C)C(CC(C)C)C(=O)N(C)C(CC(C)C)C(=O)N(C)C(C(C)C)C(=O)N1C (stereo not shown) (cyclo([X3][Abu][X4][X5]V[NMeL]AA[NMeL][NMeL][NMeV]); configuration not given here)
[4]
  pEC50: 6.89

## C/C=C/C[C@@H](C)[C@@H](O)[C@H]1C(=O)N[C@@H](CC)C(=O)N(C)[C@@H](COCCN(CC)CC)C(=O)N(C)[C@@H](CC(C)(C)O)C(=O)N[C@@H](C(C)C)C(=O)N(C)[C@@H](CC(C)C)C(=O)N[C@@H](C)C(=O)N[C@H](C)C(=O)N(C)[C@@H](CC(C)C)C(=O)N(C)[C@@H](CC(C)C)C(=O)N(C)[C@@H](C(C)C)C(=O)N1C
[5]
  pEC50: 7.30

## C/C=C/C[C@@H](C)[C@@H](O)[C@H]1C(=O)N[C@@H](CC)C(=O)N(C)[C@H](COCCN(C)C)C(=O)N(C)[C@@H](CC(C)(C)OC)C(=O)N[C@@H](C(C)C)C(=O)N(C)[C@@H](CC(C)C)C(=O)N[C@@H](C)C(=O)N[C@H](C)C(=O)N(C)[C@@H](CC(C)C)C(=O)N(C)[C@@H](CC(C)C)C(=O)N(C)[C@@H](C(C)C)C(=O)N1C
[3]
  pEC50: 6.82

## C/C=C/C[C@@H](C)[C@@H](O)[C@H]1C(=O)N[C@@H](CC)C(=O)N(C)CC(=O)N(C)[C@@H](C(C)C)C(=O)N[C@@H](C(C)C)C(=O)N(C)[C@@H](CC(C)C)C(=O)N[C@@H](C)C(=O)N[C@H](C)C(=O)N(C)[C@@H](CC(C)C)C(=O)N(C)[C@@H](CC(C)C)C(=O)N(C)[C@@H](C(C)C)C(=O)N1C [[N-MeVal]-4-cyclosporin (SDZ 220-384), N-MeVal-4-Cyclosporin, reference compound]
Hepatitis C virus, Huh-7, read-out: Antiviral activity EC50, Table 12, HCV replicon luciferase
  pEC50: 6.77

## C/C=C/C[C@@H](C)[C@@H](O)[C@H]1C(=O)N[C@@H](CC)C(=O)N(C)[C@H](CSCCN(CC)CC)C(=O)N(C)[C@@H](CC(C)(C)O)C(=O)N[C@@H](C(C)C)C(=O)N(C)[C@@H](CC(C)C)C(=O)N[C@@H](C)C(=O)N[C@H](C)C(=O)N(C)[C@@H](CC(C)C)C(=O)N(C)[C@@H](CC(C)C)C(=O)N(C)[C@@H](C(C)C)C(=O)N1C (single isomer, unassigned)
[6]
  pEC50: 7.52

## C/C=C/C[C@@H](C)[C@@H](O)[C@H]1C(=O)N[C@@H](CC)C(=O)N(C)[C@H](COCCCN2CCCCC2)C(=O)N(C)[C@@H](CC(C)(C)O)C(=O)N[C@@H](C(C)C)C(=O)N(C)[C@@H](CC(C)C)C(=O)N[C@@H](C)C(=O)N[C@H](C)C(=O)N(C)[C@@H](CC(C)C)C(=O)N(C)[C@@H](CC(C)C)C(=O)N(C)[C@@H](C(C)C)C(=O)N1C [[(R)-(3-(N-Piperidinyl)propoxy)methyl-Sar]-3-[(γ-hydroxy)-N-MeLeu]-4-cyclosporin]
[3]
  pEC50: 6.82

## C/C=C/C[C@@H](C)[C@@H](O)[C@H]1C(=O)N[C@@H](CC)C(=O)N(C)[C@H](CSCCCN(C)C)C(=O)N(C)[C@@H](CC(C)(C)O)C(=O)N[C@@H](C(C)C)C(=O)N(C)[C@@H](CC(C)C)C(=O)N[C@@H](C)C(=O)N[C@H](C)C(=O)N(C)[C@@H](CC(C)C)C(=O)N(C)[C@@H](CC(C)C)C(=O)N(C)[C@@H](C(C)C)C(=O)N1C
[3]
  pEC50: 6.96

## CC=CCC(C)C(O)C1C(=O)NC(CC)C(=O)N(C)C(COCCN2CCCCC2)C(=O)N(C)C(CC(C)(C)O)C(=O)NC(C(C)C)C(=O)N(C)C(CC(C)C)C(=O)NC(C)C(=O)NC(C)C(=O)N(C)C(CC(C)C)C(=O)N(C)C(CC(C)C)C(=O)N(C)C(C(C)C)C(=O)N1C [[(R)-(2-(N-Piperidinyl)ethoxy)methyl-Sar]-3-[(γ-hydroxy)-N-MeLeu]-4-cyclosporin]
[3]
  pEC50: 6.85

## C/C=C/C[C@@H](C)[C@@H](O)[C@H]1C(=O)N[C@@H](CC)C(=O)N(C)[C@@H](CSCCN(CC)CC)C(=O)N(C)[C@@H](CC(C)(C)O)C(=O)N[C@@H](C(C)C)C(=O)N(C)[C@@H](CC(C)C)C(=O)N[C@@H](C)C(=O)N[C@H](C)C(=O)N(C)[C@@H](CC(C)C)C(=O)N(C)[C@@H](CC(C)C)C(=O)N(C)[C@@H](C(C)C)C(=O)N1C (single isomer, unassigned; isomer a)
[4]
  pEC50: 5.67

## C/C=C/C[C@@H](C)[C@@H](O)[C@H]1C(=O)N[C@@H](CC)C(=O)N(C)[C@H](CSCCN(C)C)C(=O)N(C)[C@@H](CC(C)(C)O)C(=O)N[C@@H](C(C)C)C(=O)N(C)[C@@H](CC(C)C)C(=O)N[C@@H](C)C(=O)N[C@H](C)C(=O)N(C)[C@@H](CC(C)C)C(=O)N(C)[C@@H](CC(C)C)C(=O)N(C)[C@@H](C(C)C)C(=O)N1C (single isomer, unassigned; isomer b)
[5]
  pEC50: 7.30

## C/C=C/C[C@@H](C)[C@@H](O)[C@H]1C(=O)N[C@@H](CC)C(=O)N(C)[C@H](CSCCN(CC)CC)C(=O)N(C)[C@@H](CC(C)(C)OCOCC)C(=O)N[C@@H](C(C)C)C(=O)N(C)[C@@H](CC(C)C)C(=O)N[C@@H](C)C(=O)N[C@H](C)C(=O)N(C)[C@@H](CC(C)C)C(=O)N(C)[C@@H](CC(C)C)C(=O)N(C)[C@@H](C(C)C)C(=O)N1C (cyclo(A[dA][NMeL][NMeL][NMeV][MeBmt][Abu][dNMeC](Et2NCH2CH2)[X14]V[NMeL]))
[6]
  pEC50: 7.70

## CC=CCC(C)C(O)C1C(=O)NC(CC)C(=O)N(C)C(COCCCN(CC)CC)C(=O)N(C)C(CC(C)(C)OC)C(=O)NC(C(C)C)C(=O)N(C)C(CC(C)C)C(=O)NC(C)C(=O)NC(C)C(=O)N(C)C(CC(C)C)C(=O)N(C)C(CC(C)C)C(=O)N(C)C(C(C)C)C(=O)N1C (stereo not shown)
[3]
  pEC50: 7.00
